Source: patent US12611387B2, “Compound and composition for inducing neuroprotection” (REST THERAPEUTICS, priority 2020, dated 2026)

Key:
[1] = tested on: Aβ25-35 oligomer-intoxicated mice; assay: Passive avoidance test, neuroprotection design; format: in vivo; settings: doses 0.03; 0.1; 0.3; 1.0 and 3 mg/Kg i.p., neuroprotection design (not shown)
Experimental: (§1) The neuroprotective effect of the compounds, i.e. the ability thereof to protect cells from Aβ25-35 oligomer neurotoxicity and neurodegeneration, is also tested (FIG. 10). The test compounds are thus administered on the same day as the injection of the Aβ25-35 oligomers and are continued to be administered on a daily basis up to day 7 after the injection of the oligomers, at which time the mice are subjected to the YMT, PAT, MWT or ORT. The brain's anatomy is analysed and neuronal cells are counted by immunohistochemistry on mice sacrificed at D13. The biochemical analyses for the quantification of markers of oxidative stress and apoptosis were carried out at D16 on a group of mice that had been subjected to the WMT (FIG. 10).
This test measures non-spatial (contextual) long-term memory. The apparatus used for this test was a box with two compartments (15×20×15 cm high), one illuminated with white PVC walls and the other in the dark with black PVC walls and a grid floor. A guillotine door separated the compartments. A 60 W lamp was positioned 40 cm above the box and illuminated the white compartment. […] The time taken by the mouse to re-enter the darkened compartment (STL-Tg) and the number of vocalizations were recorded. […] After 5 s the door was raised, the step-through latency (STL-R), i.e. the time it took the mouse to enter the darkened compartment, was measured. […]

[2] = tested on: Aβ25-35 oligomer-intoxicated mice; assay: Y-maze test, symptomatic treatment; format: in vivo; settings: doses 0.1; 0.3; 1.0; 3 and 10 mg/Kg i.p., symptomatic design
Experimental: The test compounds were tested for their ability to decrease the cognitive symptoms of Aβ25-35 oligomer-induced neurodegeneration, i.e. their ability to provide symptomatic anti-amnestic treatment (FIGS. 1A and 1B). In brief, to test the symptomatic effect of the test compounds, they were administered 8 days after the icy injection of the Aβ25-35 oligomers, 30 minutes before the YMT and PAT memory tests were conducted or 30 minutes before the test, but after the training session, in the case of the MWT or ORT (FIG. 1A). […]
The spontaneous alternation test was used to assess spatial working memory (very short-term memory) in rodents. […] The mouse's entries into each arm, including the arm at whose end it was placed, are recorded. […] The number of maximum alternations is thus the total number of entries into each arm minus 2 and the percentage of alternation was calculated according to the formula: % Alt=number of actual alternations/maximum number of alterations×100
The parameters measured included the percentage of alternations (memory index) and the total number of entries into the arms of the maze (exploration index, Maurice et al., 1994, 1996; Meunier et al., 2006, 2013; Villard et al., 2009, 2011). […]

[3] = tested on: Bax and Bcl-2; assay: Bax and Bcl-2 ELISA in hippocampus, Aβ25-35 oligomer neuroprotection design; format: in vivo, mice; settings: 0.3 mg/Kg; for Bax protein levels in the hippocampus: compared to the intoxicated, untreated group (not shown)
Experimental: as §1
Their brains were removed, and the hippocampi were isolated, weighed and frozen at −80° C. awaiting biochemical analysis.
Interleukin 6 (IL-6), a cytokine inflammatory marker, and the levels of the apoptosis markers Bcl2 and Bax proteins were measured in mouse hippocampi by the ELISA tests listed in Table 1 hereinbelow. Bcl2 is often referred to as an anti-apoptotic marker and Bax as a pro-apoptotic marker. Both hippocampi of 6-8 animals per condition were used. The tissues were homogenised after thawing in cell lysis buffer (1 mL, 3 IS007, Cloud-Clone) and sonicated on ice (2×10 s). After centrifugation (10,000 g, 5 min, 4° C.), the supernatants containing the markers to be measured were aliquoted and stored at −80° C. until the ELISA test was carried out according to the supplier's instructions. The results are expressed in ng of marker per mg of total protein and as a percentage of the control (mice not intoxicated with Aβ25-35 and not treated with the test compounds).

| Structure (SMILES) | protective effect on latency in the passive avoidance test, effective doses [1] | restoring Alt % in the Y-maze test, effective doses [2] | Bax/Bcl-2 ratio in the hippocampus [3] | Bax protein levels in the hippocampus [3] |
| --- | --- | --- | --- | --- |
| NC12CC3CC(C1)CC(CCF)(C3)C2 [FENM, 3-(2-fluoroethyl)adamantan-1-amine] | procured neuroprotection as regards memory for all doses tested from 0.1 mg/Kg i.p. up to and including 3 mg/Kg | effective at all doses tested from 0.1 mg/Kg | significantly decreased the Bax/BcI-2 ratio | significantly reduced |
| CC12CC3CC(C)(C1)CC(N)(C3)C2 [memantine, 3,5-Dimethyl-1-adamantanamine, reference compound] | only observed at two of the doses tested (0.1 and 1 mg/Kg i.p.) | only effective at 0.3 mg/Kg | – | significantly reduced |
